# According to patent publication US7115253B1, “Process for stabilizing antioxidant compounds, and aqueous compositions” (Industria E Comercio De Cosmeticos Natura Ltda., priority 1999, dated 2006):
# Assay: degradation kinetics of 10% LAA solution under ultraviolet radiation
# Format: physicochemical
# Method: Comparative tests carried out by the inventors confirm the important paper of the reducing agent in the stabilization of antioxidants as per information obtained by Wrinkler B. S. in his work cited herein. A first test was carried out in order to determine the degradation kinetics of a 10% LAA solution in water-containing medium (m/v) under ultraviolet radiation, using a ultraviolet spectrophotometer, for 60 minutes.
# A stoichiometric amount of the reducing agent of the oxidation reaction, that is, Glutathion, was added to the previous post-irradiated solution. The resultant solution was irradiated with ultraviolet radiation for further 60 minutes. By analyzing the remaining LAA, it could be noticed that 9.50% (m/v) thereof was still present. Therefore, the degradation of the LAA is dramatically minimized after the reducing agent is added.
# In a third test, a 10% LAA solution was prepared in a water-containing medium (m/v) with a stoichiometric amount of the reducing agent Glutathion. […] However, the use of said compound in stoichiometric amounts still presents the already mentioned disadvantages.
compound,measurement,setting,value
"O=C1O[C@H]([C@@H](O)CO)C(O)=C1O [LAA, levogyrous ascorbic acid]",remaining concentration of molecular LAA,"10% LAA solution in water-containing medium, ultraviolet radiation 60 minutes, no reducing agent",about 9.58 % (m/v)
same,remaining LAA,"10% LAA solution with stoichiometric amount of Glutathion, ultraviolet radiation 60 minutes",9.98 % (m/v)
same,remaining LAA,"stoichiometric Glutathion added to the post-irradiated solution, ultraviolet radiation for further 60 minutes",9.50 % (m/v)
